Active and inactive are the calls of the source. The rule behind the calls is not given here.
Tests used:
[1] = biological target: T1, Tyrosinase (Agaricus bisporus) (UniProt O42713); test: Inhibition of mushroom tyrosinase at 1 uM
T1 sequence (whole entry): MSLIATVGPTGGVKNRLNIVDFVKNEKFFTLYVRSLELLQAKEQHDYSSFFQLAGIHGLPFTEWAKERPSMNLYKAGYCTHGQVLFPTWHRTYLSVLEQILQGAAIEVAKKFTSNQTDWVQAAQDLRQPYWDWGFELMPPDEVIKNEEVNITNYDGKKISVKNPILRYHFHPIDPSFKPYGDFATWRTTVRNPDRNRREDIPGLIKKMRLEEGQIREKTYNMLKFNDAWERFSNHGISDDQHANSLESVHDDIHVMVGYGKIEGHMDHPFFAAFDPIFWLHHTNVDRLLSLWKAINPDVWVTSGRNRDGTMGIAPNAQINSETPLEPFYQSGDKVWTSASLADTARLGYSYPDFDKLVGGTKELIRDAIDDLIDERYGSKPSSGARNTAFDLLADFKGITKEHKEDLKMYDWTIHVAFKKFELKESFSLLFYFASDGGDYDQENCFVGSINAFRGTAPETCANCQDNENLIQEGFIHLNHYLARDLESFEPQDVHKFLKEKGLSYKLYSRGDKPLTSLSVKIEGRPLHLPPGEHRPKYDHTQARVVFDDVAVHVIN

[2] = biological target: T1, Tyrosinase (Agaricus bisporus); test: Inhibition of mushroom tyrosinase at 3 uM
[3] = test system: B16-4A5; test: Inhibition of tyrosinase mRNA expression in theophylline-stimulated mouse B16-4A5 cells at 1 to 30 uM after 72 hrs; assay type: functional, cell-based
[4] = test system: B16-4A5; test: Inhibition of TRP1 mRNA expression in theophylline-stimulated mouse B16-4A5 cells at 1 to 30 uM after 72 hrs; assay type: functional, cell-based
[5] = test system: B16-4A5; test: Inhibition of TRP2 mRNA expression in theophylline-stimulated mouse B16-4A5 cells at 1 to 30 uM after 72 hrs; assay type: functional, cell-based
[6] = test system: B16-4A5; test: Inhibition of microphthalmia-associated transcriptional factor level in theophylline-stimulated mouse B16-4A5 cells at 1 to 30 uM after 24 hrs; assay type: functional, cell-based
[7] = test system: B16-4A5; test: Inhibition of microphthalmia-associated transcriptional factor level in theophylline-stimulated mouse B16-4A5 cells at 1 to 30 uM after 48 hrs; assay type: functional, cell-based
[8] = biological target: T2, Tyrosinase (Agaricus bisporus, UniProt O42713)
T2 sequence (O42713 whole entry): T1 sequence (whole entry)

[9] = cells; conditions: Mus musculus, B16-4A5, 72 h, read-out: INH
Description: Inhibition of melanogenesis in theophylline-stimulated mouse B16-4A5 cells at 1 uM after 72 hrs

[10] = cells; conditions: Mus musculus, B16-4A5, 72 h, read-out: INH; remark: listed apart in the source
Description: Inhibition of melanogenesis in theophylline-stimulated mouse B16-4A5 cells at 3 uM after 72 hrs

[11] = cells; conditions: Mus musculus, B16-4A5, 72 h, read-out: INH; remark: listed apart in the source
Description: Inhibition of melanogenesis in theophylline-stimulated mouse B16-4A5 cells at 10 uM after 72 hrs

[12] = cells; conditions: Mus musculus, B16-4A5, 72 h, read-out: INH; remark: listed apart in the source
Description: Inhibition of melanogenesis in theophylline-stimulated mouse B16-4A5 cells at 30 uM after 72 hrs

[13] = cells; conditions: Mus musculus, B16-4A5, 72 h, read-out: INH; remark: listed apart in the source
Description: Inhibition of melanogenesis in theophylline-stimulated mouse B16-4A5 cells at 100 uM after 72 hrs

[14] = test system: B16; test: cells; conditions: Mus musculus, B16, 72 h
Description: Inhibition of melanogenesis in theophylline-stimulated mouse B16-4A5 cells after 72 hrs

[15] = cells; conditions: Mus musculus, B16-4A5, 68 h, read-out: INH
Description: Inhibition of theophylline-stimulated mouse B16-4A5 cell proliferation assessed as cell viability at 1 uM after 68 hrs by WST8 assay

[16] = cells; conditions: Mus musculus, B16-4A5, 68 h, read-out: INH; remark: listed apart in the source
Description: Inhibition of theophylline-stimulated mouse B16-4A5 cell proliferation assessed as cell viability at 3 uM after 68 hrs by WST8 assay

[17] = cells; conditions: Mus musculus, B16-4A5, 68 h, read-out: INH; remark: listed apart in the source
Description: Inhibition of theophylline-stimulated mouse B16-4A5 cell proliferation assessed as cell viability at 10 uM after 68 hrs by WST8 assay

[18] = cells; conditions: Mus musculus, B16-4A5, 68 h, read-out: INH; remark: listed apart in the source
Description: Inhibition of theophylline-stimulated mouse B16-4A5 cell proliferation assessed as cell viability at 30 uM after 68 hrs by WST8 assay

[19] = cells; conditions: Mus musculus, B16-4A5, 68 h, read-out: INH; remark: listed apart in the source
Description: Inhibition of theophylline-stimulated mouse B16-4A5 cell proliferation assessed as cell viability at 100 uM after 68 hrs by WST8 assay

[20] = cells; conditions: Mus musculus, B16-4A5, 68 h
Description: Inhibition of theophylline-stimulated mouse B16-4A5 cell proliferation assessed as cell viability after 68 hrs by WST8 assay

SMILES	inhibition [1]	inhibition [2]	IC50 [8]	IC50 [14]	IC50 [20]	Activity [3]	Activity [4]	Activity [5]	Activity [6]	Activity [7]	inhibition at 1 µM [9]	inhibition at 3 µM [10]	inhibition at 10 µM [11]	inhibition at 30 µM [12]	inhibition at 100 µM [13]	inhibition at 1 µM [15]	inhibition at 3 µM [16]	inhibition at 10 µM [17]	inhibition at 30 µM [18]	inhibition at 100 µM [19]
O=C1c2c(O)cc(O)cc2O[C@H](c2ccccc2)[C@H]1O [PINOBAKSIN]	1.8%	2.8%	> 100 µM	> 100 µM	> 100 µM	–	–	–	–	–	–	-5.8%	10.8%	16.9%	47.7%	2.2%	3.6%	7%	7.1%	6.9%
O=c1c(O)c(-c2ccc(O)cc2)oc2cc(O)cc(O)c12 [KAEMPFEROL]	5.7%	7.6%	> 100 µM	20 µM	88 µM	–	–	–	–	–	8.3%	9.9%	23.4%	61.1%	–	5.6%	18.1%	23.5%	26.1%	56%
O=C(CCc1ccccc1)C[C@H](O)CCc1ccccc1	3.3%	2.5%	> 100 µM	48 µM	> 100 µM	–	–	–	–	–	-3.3%	6.8%	10.6%	33%	67.8%	0%	0.7%	-4.7%	-7.6%	-7.6%
COc1cc(CCC(C)=O)ccc1O [ZINGERONE]	1.4%	2.1%	> 100 µM	> 100 µM	> 100 µM	–	–	–	–	–	7.6%	3.7%	6.1%	8.3%	15.5%	-0.5%	-2.8%	-8%	-8.8%	-6.1%
COc1cc(CC/C=C/C(=O)CCc2ccccc2)ccc1O	3.2%	3%	> 100 µM	10 µM	60 µM	Active	Active	Active	inactive	Active	11.6%	22.5%	49.3%	80.1%	–	3.2%	3.8%	5.1%	2.6%	90.6%
O=c1c(O)c(-c2ccccc2)oc2cc(O)cc(O)c12 [GALANGIN]	28%	26.6%	> 100 µM	17 µM	100 µM	Active	Active	Active	inactive	Active	-0.5%	-5.3%	43.4%	87.1%	–	1.7%	7.1%	11.4%	12.7%	53.3%

Now from value to compound, other results behind:

inhibition [1]	inhibition [2]	IC50 [8]	IC50 [14]	IC50 [20]	SMILES	Activity [3]	Activity [4]	Activity [5]	Activity [6]	Activity [7]	inhibition at 1 µM [9]	inhibition at 3 µM [10]	inhibition at 10 µM [11]	inhibition at 30 µM [12]	inhibition at 100 µM [13]	inhibition at 1 µM [15]	inhibition at 3 µM [16]	inhibition at 10 µM [17]	inhibition at 30 µM [18]	inhibition at 100 µM [19]
-1.7%	-0.2%	> 100 µM	16 µM	> 100 µM	COc1ccc(-c2oc3cc(O)cc(O)c3c(=O)c2O)cc1 [KAEMPFERIDE]	Active	Active	Active	inactive	Active	0%	5.9%	39.9%	81.2%	78.4%	-2%	3.1%	7.9%	7.4%	11.2%
6%	4.4%	> 100 µM	84 µM	> 100 µM	O=C1c2c(O)cc(O)cc2O[C@H](c2ccc(O)cc2)[C@H]1O [DIHYDROKAEMPFEROL]	–	–	–	–	–	8.7%	1.2%	12.7%	20.5%	56%	0.2%	5.9%	13.8%	23.9%	30.5%
2.7%	4.6%	> 100 µM	33 µM	60 µM	O[C@H](CCc1ccccc1)C[C@H](O)CCc1ccccc1	–	–	–	–	–	10.4%	11.1%	7.2%	48.1%	–	1.1%	-0.5%	1.6%	-2.3%	90.2%
2.3%	4.7%	> 100 µM	30 µM	> 100 µM	COc1cc(CC[C@@H](O)CC(=O)CCc2ccccc2)ccc1O	–	–	–	–	–	7.5%	8.9%	23.4%	49.2%	81.1%	5.3%	11.7%	11.8%	15.1%	20.8%
3.8%	5.3%	> 100 µM	> 100 µM	> 100 µM	O=C(O)CCc1ccccc1 [PHENYL PROPIONIC ACID]	–	–	–	–	–	0.1%	6.3%	3.8%	16.9%	20.9%	-1.4%	-2.8%	1.2%	1.3%	2.9%

From ChEMBL document CHEMBL1152510, “Melanogenesis inhibitors from the rhizomes of Alpinia officinarum in B16 melanoma cells” (Bioorg Med Chem, 2009)
